Assay results reported in patent publication US20250186437A1, “CARBOLINE COMPOUNDS AND USE THEREOF” (PTC Therapeutics, Inc., priority 2021, published 2025).

What follows are compounds tested on MOLM-13 cells (assay: MOLM-13 Cell Proliferation Assay (indicator of DHODH inhibition)). Conditions: Homo sapiens, 72 Hours of culture, CellTiter-Glo, no uridine.
Assay type: cell-based
In short: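 Proliferation readout via CellTiter-Glo luminescence after 72 h compound treatment (37 °C, 5% CO2, 0.5% DMSO) of MOLM-13 cells seeded at 10^4 per well in RPMI 1640/10% FBS, used as a DHODH-inhibition indicator since these cells rely on de novo pyrimidine synthesis.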

Row | IC50 [nM] | Structure (SMILES)
1 | 0.6 | FC(F)(F)c1cc(C(F)(F)F)nc(N2CCc3c([nH]c4ccc(-n5nccn5)cc34)[C@@H]2c2ccc(N3CCOCC3)nc2)n1 [Compound 485, (1S)-2-[4,6-bis(trifluoromethyl)pyrimidin-2-yl]-1-[6-(morpholin-4-yl)pyridin-3-yl]-6-(2H-1,2,3-triazol-2-yl)-2,3,4,9-tetrahydro-1H-pyrido[3,4-b]indole]
2 | 0.4 | FC(F)(F)c1nc(N2CCc3c([nH]c4ccc(-n5nccn5)cc34)[C@@H]2c2ccc(N3CCOCC3)nc2)nc(C(F)(F)F)n1 [Compound 486, (1S)-2-[4,6-bis(trifluoromethyl)-1,3,5-triazin-2-yl]-1-[6-(morpholin-4-yl)pyridin-3-yl]-6-(2H-1,2,3-triazol-2-yl)-2,3,4,9-tetrahydro-1H-pyrido[3,4-b]indole]
3 | 0.2 | FC(F)(F)c1cc(C(F)(F)F)nc(N2CCc3c([nH]c4ccc(Br)cc34)[C@@H]2c2ccc(N3CCOCC3)nc2)n1 [Compound 487, (1S)-2-[4,6-bis(trifluoromethyl)pyrimidin-2-yl]-6-bromo-1-[6-(morpholin-4-yl)pyridin-3-yl]-2,3,4,9-tetrahydro-1H-pyrido[3,4-b]indole]
4 | 5.3 | CN1CCN(c2ncc([C@H]3c4[nH]c5ccc(Cl)cc5c4CCN3c3ncnc(C(F)(F)F)n3)cn2)CC1 [Compound 488, (1S)-6-chloro-1-[2-(4-methylpiperazin-1-yl)pyrimidin-5-yl]-2-[4-(trifluoromethyl)-1,3,5-triazin-2-yl]-2,3,4,9-tetrahydro-1H-pyrido[3,4-b]indole]
5 | 1.6 | CSc1nc(N2CCc3c([nH]c4ccc(Cl)cc34)[C@@H]2c2ccc(N3CCN(C)CC3)nc2)nc(C(F)(F)F)n1 [Compound 489, (1S)-6-chloro-1-[6-(4-methylpiperazin-1-yl)pyridin-3-yl]-2-[4-(methylsulfanyl)-6-(trifluoromethyl)-1,3,5-triazin-2-yl]-2,3,4,9-tetrahydro-1H-pyrido[3,4-b]indole]
6 | 2.8 | Cc1ccc(C2c3[nH]c4ccc(F)cc4c3CCN2c2nc(C(F)(F)F)cc(C(F)(F)F)n2)c(F)c1F (centres unmarked) [Compound 490, 2-[4,6-bis(trifluoromethyl)pyrimidin-2-yl]-1-(2,3-difluoro-4-methylphenyl)-6-fluoro-2,3,4,9-tetrahydro-1H-pyrido[3,4-b]indole]
7 | 2.2 | CN1CCN(c2ccc([C@H]3c4[nH]c5ccc(Cl)cc5c4CCN3c3ncnc(C(F)(F)F)n3)cn2)CC1 [Compound 491, (1S)-6-chloro-1-[6-(4-methylpiperazin-1-yl)pyridin-3-yl]-2-[4-(trifluoromethyl)-1,3,5-triazin-2-yl]-2,3,4,9-tetrahydro-1H-pyrido[3,4-b]indole]
8 | 3.2 | Cc1ccc(C2c3[nH]c4ccc(F)cc4c3CCN2c2nc(C(F)(F)F)nc(C(F)(F)F)n2)c(F)c1F (centres unmarked) [Compound 492, 2-[4,6-bis(trifluoromethyl)-1,3,5-triazin-2-yl]-1-(2,3-difluoro-4-methylphenyl)-6-fluoro-2,3,4,9-tetrahydro-1H-pyrido[3,4-b]indole]
9 | 25 | Cc1ccc(C2c3[nH]c4ccc(F)cc4c3CCN2c2nccc(C(F)(F)F)n2)c(F)c1F (centres unmarked) [Compound 493, 1-(2,3-difluoro-4-methylphenyl)-6-fluoro-2-[4-(trifluoromethyl)pyrimidin-2-yl]-2,3,4,9-tetrahydro-1H-pyrido[3,4-b]indole]
10 | 12 | Cc1ccc(C2c3[nH]c4ccc(F)cc4c3CCN2c2ncnc(C(F)(F)F)n2)c(F)c1F (centres unmarked) [Compound 494, 1-(2,3-difluoro-4-methylphenyl)-6-fluoro-2-[4-(trifluoromethyl)-1,3,5-triazin-2-yl]-2,3,4,9-tetrahydro-1H-pyrido[3,4-b]indole]
11 | 8.8 | CSc1nc(N2CCc3c([nH]c4ccc(F)cc34)C2c2ccc(C)c(F)c2F)nc(C(F)(F)F)n1 (centres unmarked) [Compound 495, 1-(2,3-difluoro-4-methylphenyl)-6-fluoro-2-[4-(methylsulfanyl)-6-(trifluoromethyl)-1,3,5-triazin-2-yl]-2,3,4,9-tetrahydro-1H-pyrido[3,4-b]indole]
12 | 2.8 | CC1(C)CN(c2ncc([C@H]3c4[nH]c5ccc(Cl)cc5c4CCN3c3nc(C(F)(F)F)cc(C(F)(F)F)n3)cn2)CCN1 [Compound 496, (1S)-2-[4,6-bis(trifluoromethyl)pyrimidin-2-yl]-6-chloro-1-[2-(3,3-dimethylpiperazin-1-yl)pyrimidin-5-yl]-2,3,4,9-tetrahydro-1H-pyrido[3,4-b]indole]
13 | 0.2 | Cc1ccc(C2c3[nH]c4ccc(Cl)cc4c3CCN2c2nc(C(F)(F)F)nc(C(F)(F)F)n2)c(F)c1F (centres unmarked) [Compound 497, 2-[4,6-bis(trifluoromethyl)-1,3,5-triazin-2-yl]-6-chloro-1-(2,3-difluoro-4-methylphenyl)-2,3,4,9-tetrahydro-1H-pyrido[3,4-b]indole]
14 | 0.7 | FC(F)(F)c1ncnc(N2CCc3c([nH]c4ccc(-n5nccn5)cc34)[C@@H]2c2ccc(N3CCOCC3)nc2)n1 [Compound 498, (1S)-1-[6-(morpholin-4-yl)pyridin-3-yl]-6-(2H-1,2,3-triazol-2-yl)-2-[4-(trifluoromethyl)-1,3,5-triazin-2-yl]-2,3,4,9-tetrahydro-1H-pyrido[3,4-b]indole]
15 | 0.3 | CN1CCN(c2ncc([C@H]3c4[nH]c5ccc(Br)cc5c4CCN3c3nc(C(F)(F)F)cc(C(F)(F)F)n3)cn2)CC1 [Compound 499, (1S)-2-[4,6-bis(trifluoromethyl)pyrimidin-2-yl]-6-bromo-1-[2-(4-methylpiperazin-1-yl)pyrimidin-5-yl]-2,3,4,9-tetrahydro-1H-pyrido[3,4-b]indole]
16 | 0.8 | CN1CCN(c2ncc([C@H]3c4[nH]c5ccc(-n6nccn6)cc5c4CCN3c3nc(C(F)(F)F)cc(C(F)(F)F)n3)cn2)CC1 [Compound 500, (1S)-2-[4,6-bis(trifluoromethyl)pyrimidin-2-yl]-1-[2-(4-methylpiperazin-1-yl)pyrimidin-5-yl]-6-(2H-1,2,3-triazol-2-yl)-2,3,4,9-tetrahydro-1H-pyrido[3,4-b]indole]
17 | 1.4 | CN1CCN(c2ncc([C@H]3c4[nH]c5ccc(-n6nccn6)cc5c4CCN3c3nc(C(F)(F)F)nc(C(F)(F)F)n3)cn2)CC1 [Compound 501, (1S)-2-[4,6-bis(trifluoromethyl)-1,3,5-triazin-2-yl]-1-[2-(4-methylpiperazin-1-yl)pyrimidin-5-yl]-6-(2H-1,2,3-triazol-2-yl)-2,3,4,9-tetrahydro-1H-pyrido[3,4-b]indole]
18 | 2.1 | Cc1ccc(C2c3[nH]c4ccc(-n5nccn5)cc4c3CCN2c2nccc(C(F)(F)F)n2)c(F)c1F (centres unmarked) [Compound 502, 1-(2,3-difluoro-4-methylphenyl)-6-(2H-1,2,3-triazol-2-yl)-2-[4-(trifluoromethyl)pyrimidin-2-yl]-2,3,4,9-tetrahydro-1H-pyrido[3,4-b]indole]
19 | 7.3 | C[C@@H]1CN(c2ncc([C@H]3c4[nH]c5ccc(Cl)cc5c4CCN3c3nc(C(F)(F)F)cc(C(F)(F)F)n3)cn2)C[C@H](C)N1 [Compound 503, (1S)-2-[4,6-bis(trifluoromethyl)pyrimidin-2-yl]-6-chloro-1-{2-[(3R,5S)-3,5-dimethylpiperazin-1-yl]pyrimidin-5-yl}-2,3,4,9-tetrahydro-1H-pyrido[3,4-b]indole]
20 | 30.6 | COC(=O)c1nc(N2CCc3c([nH]c4ccc(Cl)cc34)[C@@H]2c2ccc(C)c(F)c2F)nc(C(F)(F)F)n1 [Compound 504, methyl 4-[(1S)-6-chloro-1-(2,3-difluoro-4-methylphenyl)-1,3,4,9-tetrahydro-2H-pyrido[3,4-b]indol-2-yl]-6-(trifluoromethyl)-1,3,5-triazine-2-carboxylate]
21 | 1.5 | Cc1ccc([C@H]2c3[nH]c4ccc(Cl)cc4c3CCN2c2nc(C(F)(F)F)nc(C(Cl)(Cl)Cl)n2)c(F)c1F [Compound 505, (1S)-6-chloro-1-(2,3-difluoro-4-methylphenyl)-2-[4-(trichloromethyl)-6-(trifluoromethyl)-1,3,5-triazin-2-yl]-2,3,4,9-tetrahydro-1H-pyrido[3,4-b]indole]
22 | 5.7 | CN1CCN(c2ncc([C@H]3c4[nH]c5ccc(-n6nccn6)cc5c4CCN3c3ncnc(C(F)(F)F)n3)cn2)CC1 [Compound 506, (1S)-1-[2-(4-methylpiperazin-1-yl)pyrimidin-5-yl]-6-(2H-1,2,3-triazol-2-yl)-2-[4-(trifluoromethyl)-1,3,5-triazin-2-yl]-2,3,4,9-tetrahydro-1H-pyrido[3,4-b]indole]
23 | 0.6 | FC(F)c1nc(N2CCc3c([nH]c4ccc(Cl)cc34)[C@@H]2c2cnc(N3CCOCC3)nc2)nc(C(F)(F)F)n1 [Compound 507, (1S)-6-chloro-2-[4-(difluoromethyl)-6-(trifluoromethyl)-1,3,5-triazin-2-yl]-1-[2-(morpholin-4-yl)pyrimidin-5-yl]-2,3,4,9-tetrahydro-1H-pyrido[3,4-b]indole]
24 | 0.8 | CN1CCN(c2ncc([C@H]3c4[nH]c5ccc(Cl)cc5c4CCN3c3nc(C(F)F)nc(C(F)(F)F)n3)cn2)CC1 [Compound 508, (1S)-6-chloro-2-[4-(difluoromethyl)-6-(trifluoromethyl)-1,3,5-triazin-2-yl]-1-[2-(4-methylpiperazin-1-yl)pyrimidin-5-yl]-2,3,4,9-tetrahydro-1H-pyrido[3,4-b]indole]
25 | 8.1 | CN1CCN(c2ncc([C@H]3c4[nH]c5ccc(Cl)cc5c4CCN3c3nc(N4CCOCC4)nc(C(F)(F)F)n3)cn2)CC1 [Compound 509, (1S)-6-chloro-1-[2-(4-methylpiperazin-1-yl)pyrimidin-5-yl]-2-[4-(morpholin-4-yl)-6-(trifluoromethyl)-1,3,5-triazin-2-yl]-2,3,4,9-tetrahydro-1H-pyrido[3,4-b]indole]
26 | 0.1 | Cc1ccc([C@H]2c3[nH]c4ccc(Cl)cc4c3CCN2c2nc(C(F)F)nc(C(F)(F)F)n2)c(F)c1F [Compound 510, (1S)-6-chloro-1-(2,3-difluoro-4-methylphenyl)-2-[4-(difluoromethyl)-6-(trifluoromethyl)-1,3,5-triazin-2-yl]-2,3,4,9-tetrahydro-1H-pyrido[3,4-b]indole]
